Test results published in patent publication US20240390438A1, “PROBIOTICS SEPARATED FROM RABBIT FECES AND FOOD CONTAINING PROBIOTICS” (AGENT Innovation Co., Ltd., priority 2021, published 2024).
Values after ≈ are worked out from the molar mass of the structure shown.

Legend:
Colony LP19 = assay: Antibiotic susceptibility test; type: cell-based, Lactiplantibacillus Plantarum; settings: for MIC: Lactiplantibacillus plantarum, LP19, 24 h, read-out: Minimum inhibitory concentration of the antibiotic to LP19, 96-well, 37 C 24 h, OD600
From the text: (§1) To test bacterial susceptibility to antibiotics, such as Aminoglycosides antibiotics, Sulfonamide antibiotics, Quinolone antibiotics, Ampicillin, Cefotaxime, Chloramphenicol, Erythromycin, Rifampicin and Tetracycline, the experimental protocol were as follow. Further, the Quinolone antibiotics comprise Ciprofloxacin, the Aminoglycosides antibiotics comprise Kanamycin and […], and the Sulfonamide antibiotics comprise Sulfamethoxazole. […] The initial absorbance at 600 nm (OD600) of each well was recorded. Then, the 96-well plates were placed at 37° C. and cultured for 24 hours. Next, the OD600 of each well was measured again to determine minimum inhibitory concentration.

Colony LP1 = assay: Antibiotic susceptibility test; type: cell-based, Lactiplantibacillus Plantarum; settings: for MIC: Lactiplantibacillus plantarum, LP1, 24 h, read-out: Minimum inhibitory concentration of the antibiotic to LP1, 96-well, 37 C 24 h, OD600
From the text: as §1

Colony LP2 = assay: Antibiotic susceptibility test; type: cell-based, Lactiplantibacillus Plantarum; settings: 96-well, 37 C 24 h, OD600; for MIC: Lactiplantibacillus plantarum, LP2, 24 h, read-out: Minimum inhibitory concentration of the antibiotic to LP2
From the text: as §1

Colony LP5 = assay: Antibiotic susceptibility test; type: cell-based, Lactiplantibacillus Plantarum; settings: for MIC: Lactiplantibacillus plantarum, LP5, 24 h, read-out: Minimum inhibitory concentration of the antibiotic to LP5, 96-well, 37 C 24 h, OD600
From the text: as §1

Colony PTA22 = assay: Antibiotic susceptibility test; type: cell-based, Lactiplantibacillus Plantarum; settings: for MIC: Lactiplantibacillus plantarum, PTA22, 24 h, read-out: Minimum inhibitory concentration of the antibiotic to PTA22, 96-well, 37 C 24 h, OD600
From the text: as §1

L. pl 24-2L = settings: from Georgieva et al., 2015; cited from earlier work
L. pl 24-5D = settings: from Georgieva et al., 2015; cited from earlier work
L. plantarum 299 = settings: from Klarin et al., 2019; cited from earlier work
L. plantarum 299v = settings: from Klarin et al., 2019; cited from earlier work
species L. plantarum = settings: EFSA (2005); cited from earlier work
Bacillus cereus = assay: Agar diffusion method-2 (cell-free solution); type: cell-based; settings: colonies as cell-free solution in holes of TSA; ddH2O control 8
Method: (§2) Firstly, the CFSs (containing metabolites) were prepared. Besides, when probiotics break down fiber and convert the fiber into metabolites, the metabolites are postbiotics.
(§3) Next, the pathogenic bacteria described above were also cultured with 37° C. until the concentration thereof reached 1×10^8 CFU/mL, respectively. 100 μL bacterial solutions of the pathogenic bacteria described above were evenly plated on Tryptone Soy Agar (TSA) and stay for 10 minutes. Then, tips were used to form several holes in the TSA. Subsequently, 100 μL bacterial solutions of the colonies described above were added into the holes and then cultured at 37° C. for 12 hours.
(§4) This experiment is designed that the CFSs in the holes prevent the pathogenic bacteria on the plates from growing. Therefore, the larger zone indicates the better antibacterial effect.

Escherichia coli (ETEC) = assay: Agar diffusion method-2 (cell-free solution); type: cell-based; settings: colonies as cell-free solution in holes of TSA; ddH2O control 8
Method: as §2, §3, §4

Klebsiella pneumoniae = assay: Agar diffusion method-2 (cell-free solution); type: cell-based; settings: colonies as cell-free solution in holes of TSA; ddH2O control 8
Method: as §2, §3, §4

Pseudomonas aeruginosa = assay: Agar diffusion method-2 (cell-free solution); type: cell-based; settings: colonies as cell-free solution in holes of TSA; ddH2O control 8
Method: as §2, §3, §4

Salmonella enterica = assay: Agar diffusion method-2 (cell-free solution); type: cell-based; settings: colonies as cell-free solution in holes of TSA; ddH2O control 8
Method: as §2, §3, §4

Shigella sonnei [1] = assay: Agar diffusion method-2 (cell-free solution); type: cell-based; settings: colonies as cell-free solution in holes of TSA; ddH2O control 8
Method: as §2, §3, §4

Streptococcus pneumoniae = assay: Agar diffusion method-2 (cell-free solution); type: cell-based; settings: colonies as cell-free solution in holes of TSA; ddH2O control 8
Method: as §2, §3, §4

Shigella sonnei [2] = assay: Minimum inhibitory concentration and minimum bacterial concentration; type: cell-based; settings: antibiotics
Method: (§5) Minimum inhibitory concentration (MIC) refers to the minimum concentration at which the development of bacteria can be blocked and antibacterial resistance can be observed after cultured. The lower MIC means the better effect on bacteria.
(§6) The supernatants of the cultured colonies described above were collected, as cell-free solutions (CFSs), by centrifuge at 5000 rpm after cultured the colonies in a nutrient broth and shaking at 37° C. for 48 hours.
(§7) Next, 100 μL each of the CFSs and 100 μL bacterial solutions of the pathogenic bacteria were respectively added to each well of a 96-well plate. Thus, the total volume in each well was 200 μL. The tested pathogenic bacteria included Salmonella enterica, Shigella sonnei, Klebsiella pneumoniae, Streptococcus pneumoniae, Bacillus cereus, Staphylococcus aureus, Pseudomonas aeruginosa, and Escherichia coli.
(§8) As well, 100 μL each of the nutrient broth containing Ampicillin or Kanamycin and 100 μL bacterial solutions of the pathogenic bacteria were respectively added to each well of a 96-well plate. Thus, the total volume in each well was 200 μL.
(§9) Then, initial values of OD600 in each well were recorded. Subsequently, the 96-well plates were cultured at 37° C. for 24 hours, and the OD600 values thereof were re-recorded for determining the MICs of each colony described above.
(§10) Finally, 100 μL CFSs of the next three concentrations […] MIC were taken to be plated on nutrient agar and then cultured at 37° C. for 48-72 hours. The concentrations of the CFSs that no colonies grown on nutrient agar were determined to be the minimum bacterial concentration (MBCs).

Staphylococcus aureus = assay: as above; type: cell-based; settings: antibiotics
Method: as §5, §6, §7, §8, §9, §10

[3] = plated on nutrient agar 48-72 h

Compound | MIC (Colony LP19) | MIC (Colony LP1) | MIC (Colony LP2) | MIC (Colony LP5) | MIC (Colony PTA22) | Minimum inhibitory concentration of the antibiotic to L. pl 24-2L (L. pl 24-2L) | Minimum inhibitory concentration of the antibiotic to L. pl 24-5D (L. pl 24-5D) | Minimum inhibitory concentration of the antibiotic to L. plantarum 299 (L. plantarum 299) | Minimum inhibitory concentration of the antibiotic to L. plantarum 299v (L. plantarum 299v) | EFSA, MIC breakpoints species L. plantarum (species L. plantarum) | further results
CN(C)[C@@H]1C(O)=C(C(N)=O)C(=O)[C@@]2(O)C(O)=C3C(=O)c4c(O)cccc4[C@@](C)(O)[C@H]3C[C@@H]12 [Tetracycline] | 32 µg/mL (≈ 72 µM) | 32 µg/mL (≈ 72 µM) | 32 µg/mL (≈ 72 µM) | 32 µg/mL (≈ 72 µM) | 64 µg/mL (≈ 144 µM) |  |  |  |  |  | 
O=C(O)c1cn(C2CC2)c2cc(N3CCNCC3)c(F)cc2c1=O [Ciprofloxacin] | > 128 µg/mL | > 128 µg/mL | > 128 µg/mL | > 128 µg/mL | > 128 µg/mL |  |  |  |  |  | 
Cc1cc(NS(=O)(=O)c2ccc(N)cc2)no1 [Sulfamethoxazole] | > 256 µg/mL | > 256 µg/mL | > 256 µg/mL | > 256 µg/mL | > 256 µg/mL |  |  |  |  |  | Minimum inhibitory concentration of the antibiotic to LP19 (Colony LP19; 96-well, 37 C 24 h, OD600): >256 µg/mL; Minimum inhibitory concentration of the antibiotic to LP1 (Colony LP1; 96-well, 37 C 24 h, OD600): >256 µg/mL; Minimum inhibitory concentration of the antibiotic to LP2 (Colony LP2): >256 µg/mL; Minimum inhibitory concentration of the antibiotic to LP5 (Colony LP5; 96-well, 37 C 24 h, OD600): >256 µg/mL; Minimum inhibitory concentration of the antibiotic to PTA22 (Colony PTA22; 96-well, 37 C 24 h, OD600): >256 µg/mL
CC[C@H]1OC(=O)[C@H](C)[C@@H](O[C@H]2C[C@@](C)(OC)[C@@H](O)[C@H](C)O2)[C@H](C)[C@@H](O[C@@H]2O[C@H](C)C[C@H](N(C)C)[C@H]2O)[C@](C)(O)C[C@@H](C)C(=O)[C@H](C)[C@@H](O)[C@]1(C)O [Erythromycin] | 2 µg/mL (≈ 2.73 µM) | 1 µg/mL (≈ 1.36 µM) | 2 µg/mL (≈ 2.73 µM) | 2 µg/mL (≈ 2.73 µM) | 4 µg/mL (≈ 5.45 µM) | 0.75 µg/mL | 0.75 µg/mL | 0.75 µg/mL | 1 µg/mL | 4 µg/mL | 
CC1(C)S[C@@H]2[C@H](NC(=O)[C@H](N)c3ccccc3)C(=O)N2[C@H]1C(=O)O [Ampicillin] | 0.25 µg/mL (≈ 0.715 µM) | 0.125 µg/mL (≈ 0.358 µM) | 0.25 µg/mL (≈ 0.715 µM) | 0.25 µg/mL (≈ 0.715 µM) | 0.5 µg/mL (≈ 1.43 µM) | 0.38 µg/mL | 1 µg/mL | 0.094 µg/mL | 0.094 µg/mL | 4 µg/mL | Inhibitory zone, Bacillus Cereus (Bacillus cereus): 8 mm; Inhibitory zone, Escherichia coli (ETEC) (Escherichia coli (ETEC)): 8 mm; Inhibitory zone, Klebsiella Pneumoniae (Klebsiella pneumoniae): 8 mm; Inhibitory zone, Pseudomonas Aeruginosa (Pseudomonas aeruginosa): 8 mm; Inhibitory zone, Salmonella Enterica (Salmonella enterica): 8 mm; Inhibitory zone, Shigella Sonnei (Shigella sonnei [1]): 12 mm; Inhibitory zone, Streptococcus Pneumoniae (Streptococcus pneumoniae): 8 mm; MIC (Shigella sonnei [2]; 37 C 24 h, OD600): 8 µg/mL (≈ 22.9 µM); MBC (Shigella sonnei [2]; [3]): 16 µg/mL (≈ 45.8 µM); MIC (Staphylococcus aureus; 37 C 24 h, OD600): 0.5 µg/mL (≈ 1.43 µM); MBC (Staphylococcus aureus; [3]): 1 µg/mL (≈ 2.86 µM)
